Tests used:
morningglory [1] = assay: Test A postemergence; type: in vivo, Ipomoea spp.; conditions: Postemergence
Procedure, shortened: (§1)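 Growth medium: loam soil blended with sand. Preemergence treatment used a directed soil spray right after planting; postemergence treatment targeted seedlings at one to two leaves (2–10 cm height). Response was judged by eye relative to untreated plants about 10 days later on a 0–100 control scale.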

crabgrass, large [2] = assay: Test A postemergence; type: in vivo, Digitaria sanguinalis; conditions: Postemergence
Procedure, shortened: as §1

velvetleaf [3] = assay: Test A preemergence; type: in vivo, Abutilon theophrasti; conditions: preemergence, 125 g ai/ha, visual injury approx. 10 days after treatment
Procedure, shortened: as §1

crabgrass, large [4] = assay: Test A preemergence; type: in vivo, Digitaria sanguinalis; conditions: preemergence; for Crabgrass, Large plant response rating (0 to 100 scale): 125 g ai/ha, visual injury approx. 10 days after treatment; for Crabgrass, Large plant response rating: 500 g ai/ha, visual injury after approx. 10 days, 0 to 100 scale (0 no effect, 100 complete control)
Procedure, shortened: as §1

ducksalad = assay: Test B flood; type: in vivo, Heteranthera limosa; conditions: 250 g ai/ha, visual rating on 0 to 100 scale (0 no effect, 100 complete control), 13 to 15 days
Procedure, shortened: (§2)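 At two leaves, seedlings received the test compound via the paddy water, pots having been flooded 3 cm over the soil surface and kept so. Greenhouse-held for 13 to 15 days, then judged by eye against controls on a scale running 0 (no effect) to 100 (complete control).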

rice = assay: Test B flood; type: in vivo, Oryza sativa; conditions: 250 g ai/ha, visual rating on 0 to 100 scale (0 no effect, 100 complete control), 13 to 15 days
Procedure, shortened: as §2

barnyardgrass [5] = assay: Test A postemergence; type: in vivo, Echinochloa crus-galli; conditions: Postemergence
Procedure, shortened: as §1

sedge, umbrella = assay: Test B flood; type: in vivo, Cyperus difformis; conditions: 250 g ai/ha, visual rating on 0 to 100 scale (0 no effect, 100 complete control), 13 to 15 days
Procedure, shortened: as §2

velvetleaf [6] = assay: Test A postemergence; type: in vivo, Abutilon theophrasti; conditions: Postemergence
Procedure, shortened: as §1

foxtail, giant [7] = assay: Test A preemergence; type: in vivo, Setaria faberii; conditions: preemergence; for Foxtail, Giant plant response rating (0 to 100 scale): 125 g ai/ha, visual injury approx. 10 days after treatment; for Foxtail, Giant plant response rating: 500 g ai/ha, visual injury after approx. 10 days, 0 to 100 scale (0 no effect, 100 complete control)
Procedure, shortened: as §1

morningglory [8] = assay: Test A preemergence; type: in vivo, Ipomoea spp.; conditions: preemergence, 125 g ai/ha, visual injury approx. 10 days after treatment
Procedure, shortened: as §1

barnyardgrass [9] = assay: Test A preemergence; type: in vivo, Echinochloa crus-galli; conditions: preemergence; for Barnyardgrass plant response rating (0 to 100 scale, 0 is no effect, 100 is complete control): 125 g ai/ha, visual injury approx. 10 days after treatment; for Barnyardgrass plant response rating: 500 g ai/ha, visual injury after approx. 10 days, 0 to 100 scale (0 no effect, 100 complete control)
Procedure, shortened: as §1

corn [10] = assay: Test A postemergence; type: in vivo, Zea mays; conditions: Postemergence
Procedure, shortened: as §1

pigweed [11] = assay: Test A preemergence; type: in vivo, Amaranthus retroflexus; conditions: preemergence, 125 g ai/ha, visual injury approx. 10 days after treatment
Procedure, shortened: as §1

foxtail, giant [12] = assay: Test A postemergence; type: in vivo, Setaria faberii; conditions: Postemergence
Procedure, shortened: as §1

wheat [13] = assay: Test A postemergence; type: in vivo, Triticum aestivum; conditions: Postemergence
Procedure, shortened: as §1

wheat [14] = assay: Test A preemergence; type: in vivo, Triticum aestivum; conditions: preemergence, 125 g ai/ha, visual injury approx. 10 days after treatment
Procedure, shortened: as §1

corn [15] = assay: Test A preemergence; type: in vivo, Zea mays; conditions: preemergence; for Corn plant response rating (0 to 100 scale): 125 g ai/ha, visual injury approx. 10 days after treatment; for Corn plant response rating: 500 g ai/ha, visual injury after approx. 10 days, 0 to 100 scale (0 no effect, 100 complete control)
Procedure, shortened: as §1

barnyardgrass [16] = assay: Test B flood; type: in vivo, Echinochloa crus-galli; conditions: 250 g ai/ha, visual rating on 0 to 100 scale (0 no effect, 100 complete control), 13 to 15 days
Procedure, shortened: as §2

pigweed [17] = assay: Test A postemergence; type: in vivo, Amaranthus retroflexus; conditions: Postemergence
Procedure, shortened: as §1

[18] = 125 g ai/ha, 0 to 100 scale, 0 no effect, 100 complete control
[19] = 500 g ai/ha, 0 to 100 scale (0 no effect, 100 complete control)

SMILES	Morningglory plant response rating (morningglory [1]; [18])	Morningglory plant response rating (morningglory [1]; [19])	Crabgrass, Large plant response rating (crabgrass, large [2]; [18])	Crabgrass, Large plant response rating (crabgrass, large [2]; [19])	Velvetleaf plant response rating (0 to 100 scale) (velvetleaf [3])	Crabgrass, Large plant response rating (0 to 100 scale) (crabgrass, large [4])	Crabgrass, Large plant response rating (crabgrass, large [4])	Plant response rating, Ducksalad (ducksalad)	Plant response rating, Rice (rice)	Barnyardgrass plant response rating (barnyardgrass [5]; [18])	Barnyardgrass plant response rating (barnyardgrass [5]; [19])	Plant response rating, Sedge, Umbrella (sedge, umbrella)	Velvetleaf plant response rating (velvetleaf [6]; [18])	Velvetleaf plant response rating (velvetleaf [6]; [19])	Foxtail, Giant plant response rating (0 to 100 scale) (foxtail, giant [7])	Foxtail, Giant plant response rating (foxtail, giant [7])	Morningglory plant response rating (0 to 100 scale) (morningglory [8])	Barnyardgrass plant response rating (0 to 100 scale, 0 is no effect, 100 is complete control) (barnyardgrass [9])	Barnyardgrass plant response rating (barnyardgrass [9])	Corn plant response rating (corn [10]; [18])	other results
CCc1cc(C(=O)NC2CC2)nn1Oc1cccc(OC(F)(F)F)c1 [Compound 222]	30	50	40	90	0	80	100	55	15	80	80	65	30	50	0	80	0	0	90	0	Corn plant response rating (corn [10]; [19]): 60; Pigweed plant response rating (0 to 100 scale) (pigweed [11]): 20; Foxtail, Giant plant response rating (foxtail, giant [12]; [18]): 20; Foxtail, Giant plant response rating (foxtail, giant [12]; [19]): 70; Wheat plant response rating (wheat [13]; [18]): 0; Wheat plant response rating (wheat [13]; [19]): 20; Wheat plant response rating (0 to 100 scale) (wheat [14]): 0; Corn plant response rating (0 to 100 scale) (corn [15]): 0; Corn plant response rating (corn [15]): 0; Plant response rating, Barnyardgrass (barnyardgrass [16]): 0; Pigweed plant response rating (pigweed [17]; [18]): 30; Pigweed plant response rating (pigweed [17]; [19]): 100
CCNC(=O)c1cc(CC)n(Oc2cccc(OC(F)(F)F)c2)n1 [Compound 223]	0	30	20	70	0	20	90	25	25	0	50	65	0	30	0	20	0	0	40	0	Corn plant response rating (corn [10]; [19]): 30; Pigweed plant response rating (0 to 100 scale) (pigweed [11]): 0; Foxtail, Giant plant response rating (foxtail, giant [12]; [18]): 0; Foxtail, Giant plant response rating (foxtail, giant [12]; [19]): 30; Wheat plant response rating (wheat [13]; [18]): 0; Wheat plant response rating (wheat [13]; [19]): 10; Wheat plant response rating (0 to 100 scale) (wheat [14]): 0; Corn plant response rating (0 to 100 scale) (corn [15]): 0; Corn plant response rating (corn [15]): 0; Plant response rating, Barnyardgrass (barnyardgrass [16]): 0; Pigweed plant response rating (pigweed [17]; [18]): 20; Pigweed plant response rating (pigweed [17]; [19]): 60
CCCNC(=O)c1cc(COC)n(Cc2cc(C(F)(F)C(F)(F)F)nn2C)n1 [Compound 228]	50	100	20	60	0	90	100	30	0	0	50	30	10	30	30	80	30	10	90	10	Corn plant response rating (corn [10]; [19]): 50; Pigweed plant response rating (0 to 100 scale) (pigweed [11]): 90; Foxtail, Giant plant response rating (foxtail, giant [12]; [18]): 10; Foxtail, Giant plant response rating (foxtail, giant [12]; [19]): 60; Wheat plant response rating (wheat [13]; [18]): 0; Wheat plant response rating (wheat [13]; [19]): 10; Wheat plant response rating (0 to 100 scale) (wheat [14]): 0; Corn plant response rating (0 to 100 scale) (corn [15]): 0; Corn plant response rating (corn [15]): 30; Plant response rating, Barnyardgrass (barnyardgrass [16]): 0; Pigweed plant response rating (pigweed [17]; [18]): 30; Pigweed plant response rating (pigweed [17]; [19]): 80

Reference: US20150105252A1, “SUBSTITUTED PYRAZOLES AS HERBICIDES” (E I DU PONT DE NEMOURS AND COMPANY, priority 2013, published 2015)
